Where a SMILES comes first, the peptide text is derived from it. Bridges are numbered along the chain shown (N, C = ends). [ ]: non-standard residue; d: D form. The star is where a group is joined. hPhe(3-Cl-4-CF3) = N[C@@H](CCc1ccc(C(F)(F)F)c(Cl)c1)C(=O)O; NPrPhe(4-CF3) = CCCN[C@@H](Cc1ccc(C(F)(F)F)cc1)C(=O)O; NMeGly(cPent) = CN[C@H](C(=O)O)C1CCCC1; Hyp = O=C(O)[C@@H]1C[C@@H](O)CN1; NMeD = CN[C@@H](CC(=O)O)C(=O)O; NMeL = CN[C@@H](CC(C)C)C(=O)O; NMeNva = CCC[C@H](NC)C(=O)O; Morpholide = C1CN(*)CCO1; NMeA = CN[C@@H](C)C(=O)O; Ac5c = NC1(C(=O)O)CCCC1; Aze = O=C(O)[C@@H]1CCN1; Ac4c = NC1(C(=O)O)CCC1; Sar = CNCC(=O)O
Key:
[1] = test system: human lung cancer strain NCI-H441; assay type: cell-based
Method in brief: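 Proliferation was scored by […] measured after the reagent was added to cultures kept at 37°C in 5% carbon dioxide.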

HRAS wild-type protein = HRAS wild-type protein (Homo sapiens, UniProt P01112); experiment: Binding to HRAS by surface plasmon resonance (SPR), KD and KD ratio to KRAS
Sequence of HRAS wild-type protein (P01112 whole entry): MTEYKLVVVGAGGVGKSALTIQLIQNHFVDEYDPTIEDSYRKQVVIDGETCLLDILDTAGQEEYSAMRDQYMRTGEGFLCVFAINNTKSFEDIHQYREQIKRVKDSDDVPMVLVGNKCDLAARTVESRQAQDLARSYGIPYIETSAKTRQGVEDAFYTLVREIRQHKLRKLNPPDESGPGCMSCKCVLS
Method in brief: (§1)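 Compound binding is evaluated by SPR single-cycle kinetics, with concentrations added intermittently from low to high for 75 s each. Target surfaces carry GDP-loaded biotinylated Avi-RAS at about 100–300 RU, regenerated after each cycle; temperature 30°C. A 1:1 binding model gives KD.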

[2] = target: GDP-bound NRAS wild-type protein (Homo sapiens, UniProt P01111); experiment: Binding to NRAS by surface plasmon resonance (SPR), KD and KD ratio to KRAS
Sequence of GDP-bound NRAS wild-type protein (P01111 whole entry): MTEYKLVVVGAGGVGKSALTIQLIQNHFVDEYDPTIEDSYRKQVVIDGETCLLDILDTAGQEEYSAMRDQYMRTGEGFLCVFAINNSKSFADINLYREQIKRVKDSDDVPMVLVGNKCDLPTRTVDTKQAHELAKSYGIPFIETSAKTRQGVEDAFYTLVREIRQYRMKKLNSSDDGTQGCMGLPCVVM
Method in brief: as §1

[3] = ratio of the KD value with respect to HRAS wild-type protein to the KD value with respect to KRAS
[4] = ratio of the KD value with respect to GDP-bound NRAS wild-type protein to the KD value with respect to KRAS
[5] = ratio of KD for HRAS wild-type protein to KD for KRAS
[6] = ratio of KD for GDP-bound NRAS wild-type protein to KD for KRAS

Row | SMILES | IC50 [1] | HRAS /KRAS (HRAS wild-type protein; [3]) | NRAS /KRAS [2, 4] | HRAS /KRAS (HRAS wild-type protein; [5]) | NRAS /KRAS [2, 6] | HRAS /KRAS (HRAS wild-type protein; ratio of KD with respect to HRAS wild-type protein to KD with respect to KRAS) | NRAS /KRAS ([2]; ratio of KD with respect to GDP-bound NRAS wild-type protein to KD with respect to KRAS)
1 | CCCN1C(=O)CN(C)C(=O)CNC(=O)[C@H]([C@@H](C)CC)NC(=O)[C@H](CC(C)C)N(C)C(=O)C[C@@H](C(=O)N2CCOCC2)N(C)C(=O)[C@H](C2CCCC2)N(C)C(=O)C2(CCC2)NC(=O)[C@@H]2C[C@@H](OCC)CN2C(=O)[C@H](CCc2ccc(C(F)(F)F)c(Cl)c2)NC(=O)CN(C)C(=O)[C@@H]1Cc1ccc(C(F)(F)F)cc1 [PP0397] ([NMeL]IG[Sar][NPrPhe(4-CF3)][Sar][hPhe(3-Cl-4-CF3)][Hyp](Et)[Ac4c][NMeGly(cPent)][NMeD]-Morpholide; lactam N-11) | 0.7 nM | C (A compound having a KD ratio of 0.1 or more and less than 3 is denoted as C) | C (A compound having a KD ratio of 0.1 or more and less than 3 is denoted as C) | – | – | – | –
2 | CCC[C@H]1C(=O)N[C@@H]([C@@H](C)CC)C(=O)N(C)[C@@H](C)C(=O)N2CC[C@H]2C(=O)N(CCC)[C@@H](Cc2ccc(C(F)(F)F)cc2)C(=O)N(C)CC(=O)N[C@@H](CCc2ccc(C(F)(F)F)c(Cl)c2)C(=O)N2CCC[C@H]2C(=O)NC2(CCCC2)C(=O)N(C)[C@@H](C2CCCC2)C(=O)N(C)[C@H](C(=O)N2CCOCC2)CC(=O)N1C [PP0193] ([NMeNva]I[NMeA][Aze][NPrPhe(4-CF3)][Sar][hPhe(3-Cl-4-CF3)]P[Ac5c][NMeGly(cPent)][NMeD]-Morpholide; lactam N-11) | 1.4 nM | – | – | C (A compound having a KD ratio of 0.1 or more and less than 3 is denoted as C) | C (A compound having a KD ratio of 0.1 or more and less than 3 is denoted as C) | – | –
3 | CCCN1C(=O)CN(C)C(=O)CN(C)C(=O)[C@H]([C@@H](C)CC)NC(=O)[C@H](CC(C)C)N(C)C(=O)C[C@@H](C(=O)N2CCOCC2)N(C)C(=O)[C@H](C2CCCC2)N(C)C(=O)C2(CCCC2)NC(=O)[C@@H]2C[C@@H](O)CN2C(=O)[C@H](CCc2ccc(C(F)(F)F)c(Cl)c2)NC(=O)CN(C)C(=O)[C@@H]1Cc1ccc(C(F)(F)F)cc1 [PP0241] ([NMeL]I[Sar][Sar][NPrPhe(4-CF3)][Sar][hPhe(3-Cl-4-CF3)][Hyp][Ac5c][NMeGly(cPent)][NMeD]-Morpholide; lactam N-11) | 4.9 nM | – | – | C (A compound having a KD ratio of 0.1 or more and less than 3 is denoted as C) | B (a compound having 3 or more and less than 10 is denoted as B) | – | –

Second part, led by results:

Row | IC50 [1] | SMILES | HRAS /KRAS (HRAS wild-type protein; [3]) | NRAS /KRAS [2, 4] | HRAS /KRAS (HRAS wild-type protein; [5]) | NRAS /KRAS [2, 6] | HRAS /KRAS (HRAS wild-type protein; ratio of KD with respect to HRAS wild-type protein to KD with respect to KRAS) | NRAS /KRAS ([2]; ratio of KD with respect to GDP-bound NRAS wild-type protein to KD with respect to KRAS)
4 | 18 nM | CCO[C@@H]1C[C@H]2C(=O)NC3(CCC3)C(=O)N(C)[C@@H](C3CCCC3)C(=O)N(C)[C@H](C(=O)N(C)C)CC(=O)N(C)[C@@H](CC)C(=O)N[C@@H]([C@@H](C)CC)C(=O)N(C)CC(=O)N(C)[C@H]3C[C@@H](C)CCN(C3=O)[C@@H](Cc3ccc(C(F)(F)F)cc3)C(=O)N(C)CC(=O)N[C@@H](CCc3cc(F)c(C(F)(F)F)c(F)c3)C(=O)N2C1 [PP1020] | – | – | B (a compound having 3 or more and less than 10 is denoted as B) | C (A compound having a KD ratio of 0.1 or more and less than 3 is denoted as C) | – | –
5 | 359 nM | CCO[C@@H]1C[C@H]2C(=O)NC3(CCC3)C(=O)N(C)[C@@H](C3CCCC3)C(=O)N(C)[C@H](C(=O)N(C)C)CC(=O)N(C)[C@@H](CC)C(=O)N[C@@H]([C@@H](C)CC)C(=O)N3CC[C@H]3C(=O)N(C)[C@H]3CC(C)=C(C)CN(C3=O)[C@@H](Cc3ccc(C(F)(F)F)cc3)C(=O)N(C)CC(=O)N[C@@H](CCc3cc(F)c(C(F)(F)F)c(F)c3)C(=O)N2C1 [PP1049] | – | – | C (A compound having a KD ratio of 0.1 or more and less than 3 is denoted as C) | C (A compound having a KD ratio of 0.1 or more and less than 3 is denoted as C) | – | –
6 | 56.6 nM | CC[C@H](C)[C@@H]1NC(=O)[C@H](CC)N(C)C(=O)C[C@@H](C(=O)N(C)C)N(CC)C(=O)[C@H](C2CCCC2)N(C)C(=O)C2(CCC2)NC(=O)[C@@H]2CCCCN2C(=O)[C@H](CCc2cc(F)c(C(F)(F)F)c(F)c2)NC(=O)CN(C)C(=O)[C@H](Cc2ccc(C(F)(F)F)cc2)N2CCCC[C@@H](C2=O)N(C)C(=O)CN(C)C1=O [PP0661] | B (a compound having 3 or more and less than 10 is denoted as B) | C (A compound having a KD ratio of 0.1 or more and less than 3 is denoted as C) | – | – | – | –
7 | 2.4 nM | CCC[C@H]1C(=O)N[C@@H]([C@@H](C)CC)C(=O)N(C)CC(=O)N(C)[C@H]2C/C=C\CCN(C2=O)[C@@H](Cc2ccc(C(F)(F)F)cc2)C(=O)N(C)CC(=O)N[C@@H](CCc2cc(F)c(C(F)(F)F)c(F)c2)C(=O)N2C[C@H](OCC)C[C@H]2C(=O)NC2(CCC2)C(=O)N(C)[C@@H](C2CCCC2)C(=O)N(C)[C@H](C(=O)N(C)CCC)CC(=O)N1C [PP1389] | – | – | – | – | A (a compound having 10 or more and less than 20 is denoted as A) | AA (a compound having 20 or more is denoted as AA)
